The values below come from patent publication US20060257484A1, “Combination of tramadol and substances that comprise gabapentin” (priority 2005, published 2006).

By ED50 is commonly meant the midpoint of the dose-response relation.

A short description of data set [1]: Expected pharmacokinetic parameters in rat after tramadol HCl plus gabapentin (model). The text has this: In another modeling approach, the dose of gabapentin for humans can be evaluated in order to match the AUCinf ratio for gabapentin to tramadol and O-demthyltramadol in rat.
The conditions of data set [2]: cited from earlier work.
The nature of data set [3]: Expected human pharmacokinetic parameters at 200 mg tramadol per day (model matching rat AUCinf ratio). The class given is in vivo. Conditions: 200 mg tramadol per day for humans; for expected Cavg: gabapentin at 6.77 fold AUC ratio (daily dose 505 mg gabapentin equivalent). An excerpt:
Additional ranges can be determined for other species.

For data set [4] the following is noted: single oral dose 10 mg/kg tramadol HCl, 8 male Sprague-Dawley rats, cited from earlier work.
For data set [5] the following is noted: steady state, cited from earlier work.
Data set [6] has as its system Chung model. Particulars: Chung model disclosed in Codd; cited from earlier work.
For data set [7] the following is noted: single oral dose 25 mg/kg gabapentin, 6 male Sprague-Dawley rats; cited from earlier work.
For data set [8] the following is noted: higher doses increase less than expected; cited from earlier work.
[9] abbreviates: single administration of 10 mg/kg tramadol HCl and 5 mg/kg gabapentin, assuming no pharmacokinetic interaction.
Setting [10] is: after five days of tramadol 100 mg twice daily.
Setting [11] is: Immediate Release Capsule, 50 mg four times daily.
[12] abbreviates: Modified Release Formulation, 200 mg once daily.

Counter-ions that a name gives are not always drawn. Like-named read-outs stand apart in the source and are kept apart here.

On to `CN(C)CC1CCCCC1(O)c1cccc(O)c1` (racemic) [(±) M1, trans-O-demethyltramadol], for which, in data set [1] (setting [9]), the “expected AUCinf” value came to 523 ng·h/mL and the “expected Cmax” value turned out to be 331 ng/mL.
Consider `COc1cccc(C2(O)CCCCC2CN(C)C)c1` (racemic) [tramadol], for which, in data set [2] (setting [10]), the “AUC0-12 at steady state” value is 2970 ng·h/mL and the “Cmax at steady state” value was 414 ng/mL. For the same compound, the “Cmax and AUCinf versus dose” value in data set [2] (tramadol 400 mg given) is given as “proportional to the dose”.
As for `CN(C)CC1CCCCC1(O)c1cccc(O)c1` (single isomer, unassigned; (+)) [(+) M1, trans-O-demethyltramadol], in data set [3], the “expected Cmax” value was found to be 36 ng/mL, the “expected Cmin” value amounted to 21 ng/mL and the “expected Cavg” value worked out at 11 ng/mL. Further, in data set [4] (10 mg/kg), the AUCinf is reported as 16242 (2648) μg L^−1 min, the Cmax is reported as 136 (32) μg/L and the Tmax is listed as 34 (21) min. In addition, in data set [5] (setting [11]), the AUC0-24 is 644 ng·h/mL, the Cmax was 36 ng/mL and the Cmin is 21 ng/mL. In addition, in data set [5] (setting [12]), the AUC0-24 was 704.12 (327.09) ng * h/ml, the Cmax is on record as 42 (18.4) ng/mL and the Cmin was 16.71 (10.41) ng/mL.
Consider `CN(C)CC1CCCCC1(O)c1cccc(O)c1` (single isomer, unassigned; (-)) [(−) M1, trans-O-demethyltramadol], for which, in data set [3], the “expected Cmax” value was 43 ng/mL, the “expected Cmin” value is 22 ng/mL and the “expected Cavg” value amounted to 12 ng/mL. For the same compound, in data set [4] (10 mg/kg), the AUCinf is on record as 21178 (1987) μg L^−1 min, the Cmax was 195 (63) μg/L and the Tmax was 41 (24) min. Moreover, in data set [5] (setting [11]), the AUC0-24 is 690 ng·h/mL, the Cmax was 43 ng/mL and the Cmin was 22 ng/mL. For the same compound, in data set [5] (setting [12]), the AUC0-24 is 745 (286) ng * h/ml, the Cmax is on record as 46 (18) ng/mL and the Cmin was 16 (8) ng/mL.
For the compound `COc1cccc(C2(O)CCCCC2CN(C)C)c1` (single isomer, unassigned; (-)) [(−)-trans-T], in data set [3], the “expected Cmax” value was determined as 157 ng/mL, the “expected Cmin” value was 86 ng/mL and the “expected Cavg” value stood at 113 ng/mL. For the same compound, in data set [4], the AUCinf was 5257 µg·min/L, the Cmax was 74 µg/L and the Tmax was 22 min. In data set [5] (setting [11]), the AUC0-24 was 2719 ng·h/mL, the Cmax was 157 ng/mL and the Cmin is 86 ng/mL. In data set [5] (setting [12]), the AUC0-24 is given as 3005 (1120) ng * h/ml, the Cmax is listed as 199 (75) ng/mL and the Cmin is listed as 62 (30) ng/mL.
Turning to `COc1cccc([C@@]2(O)CCCC[C@@H]2CN(C)C)c1` [(+)-trans-T], in data set [3], the “expected Cmax” value came to 190 ng/mL, the “expected Cmin” value was 111 ng/mL and the “expected Cavg” value amounted to 143 ng/mL. Moreover, in data set [4], the AUCinf is 21501 µg·min/L, the Cmax is 193 µg/L and the Tmax is given as 22 min. Moreover, in data set [5] (setting [11]), the AUC0-24 is 3429 ng·h/mL, the Cmax is 190 ng/mL and the Cmin was 111 ng/mL. In data set [5] (setting [12]), the AUC0-24 is 3763 (1275) ng * h/ml, the Cmax is reported as 239 (81) ng/mL and the Cmin is reported as 81 (36) ng/mL.
Turning to `NCC1(CC(=O)O)CCCCC1` [Gabapentin, gabapentin], the “AUCinf for gabapentin relative to that for (±) tramadol and (±) O-demthyltramadol” value in data set [1] (Chung model (rat)) is reported as 6.77 fold. The “expected Cavg” value in data set [3] came out at 1890 ng/mL. Further, the ED50 in data set [6] is listed as 439.50 mg/kg. In data set [7], the AUCinf is 32800 ng·h/mL, the Cmax was 6850 ng/mL and the Tmax was 108 min. For the same compound, the “dose up to which serum concentrations increase linearly” value in data set [8] is recorded as “up to 1800 mg/d”.
Regarding `COc1cccc(C2(O)CCCCC2CN(C)C)c1` (stereo not shown) [tramadol HCl], in data set [6], the ED50 was 94.47 mg/kg.
